The source of these data is ChEMBL document CHEMBL5728127, “Diarylalkanes as potent inhibitors of binuclear enzymes” (2020).

This assay deals with T1, Polyphenol oxidase 1 (Agaricus bisporus, UniProt Q00024).
T1 sequence (Q00024 whole entry): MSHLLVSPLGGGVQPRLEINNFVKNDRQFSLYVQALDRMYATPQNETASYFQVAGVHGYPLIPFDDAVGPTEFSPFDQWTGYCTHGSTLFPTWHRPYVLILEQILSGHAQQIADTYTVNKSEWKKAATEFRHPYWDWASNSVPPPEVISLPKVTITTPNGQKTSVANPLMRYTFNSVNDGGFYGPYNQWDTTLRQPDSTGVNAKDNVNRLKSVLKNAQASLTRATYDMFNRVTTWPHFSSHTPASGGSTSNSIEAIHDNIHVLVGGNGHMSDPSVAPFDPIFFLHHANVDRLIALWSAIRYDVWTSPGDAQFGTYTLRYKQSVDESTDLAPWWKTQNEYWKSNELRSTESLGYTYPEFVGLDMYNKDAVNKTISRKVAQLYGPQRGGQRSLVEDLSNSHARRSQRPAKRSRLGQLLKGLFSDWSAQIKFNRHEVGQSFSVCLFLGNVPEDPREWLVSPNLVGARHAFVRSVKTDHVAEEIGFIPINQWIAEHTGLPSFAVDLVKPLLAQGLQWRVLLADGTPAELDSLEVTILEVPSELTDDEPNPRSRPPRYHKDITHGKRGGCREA
The assay can be described thus: Using this method, the conversion of L-Dopa, a substrate of tyrosinase, into dopachrome is followed by monitoring absorption at 450 nm. Tyrosinase was prepared in 50 mM potassium phosphate buffer, pH 6.8 (assay buffer) at 2000 U/ml and stored at −20° C. in 1 ml aliquots prior to use. For use in assays, stock enzyme solutions were thawed and diluted to 200 U/ml with assay buffer. A 2 mM working solution of substrate, L-DOPA, was prepared in assay buffer for each assay. Samples were dissolved in 10% DMSO (0.5 ml) and diluted to 5 ml with assay buffer. The reaction mixture consisted of 0.050 ml 2 mM L-DOPA, 0.050 ml 200 U/ml mushroom tyrosinase and 0.050 ml inhibitor. Reaction volume was adjusted to 200 μl with assay buffer. […] Average velocity was determined from linear enzyme rate as measured by change in absorbance (ΔA450) at 450 nm per minute.

As for `CC(Cc1ccc(O)c(O)c1)C(C)Cc1ccc(O)c(O)c1` (stereo unspecified) [NORDIHYDROGUAIARETIC ACID], the IC50 came to 700 µM. In the case of `COc1cc(O)c(C(O)CCc2ccc(O)c(OC)c2)c(OC)c1` (stereo unspecified) it was 375 µM.

`COc1ccc(CC(O)c2ccc(O)cc2O)cc1` (stereo unspecified): the half-inhibitory concentration (IC50) was 77 µM. Regarding `Oc1ccc(C(O)Cc2ccc(Cl)cc2Cl)c(O)c1` (stereo unspecified), the IC50 is 1000 µM. As for `COc1ccc(O)c(CCCc2ccc(O)cc2OC)c1`, the IC50 amounted to 24 µM. For `COc1ccc(CCC(O)c2c(O)cc(O)cc2O)cc1O` (stereo unspecified) the value was 1200 µM; for `Nc1ccc(CCC(O)c2c(O)cc(O)cc2O)cc1` (stereo unspecified), 8 µM. For `Oc1ccc(CCC(O)c2ccc(O)cc2)cc1` (stereo unspecified) the value was 305 µM; for `COc1ccc(CCC(O)c2cc(OC)ccc2O)c(OC)c1` (stereo unspecified), 1000 µM.

As to `COc1ccc(CCCc2ccc(O)cc2O)c(OC)c1C`, the IC50 was 0.24 µM. For the molecule `Oc1ccc(C(O)CCc2ccccc2O)c(O)c1` (stereo unspecified), the IC50 came to 0.7 µM.
